{"source": "the kinase profiling compilation of Christmann-Franck et al. (2016)", "assay_in_all_cases": "radiometric filter-binding kinase assay, Kinase HotSpot", "settings_in_all_cases": "compound 0.5 µM; ATP 10 µM", "key": {"[1]": {"biological_target": "CDK3 CCNE1 (human) (UniProt Q00526+P24864)"}, "[2]": {"biological_target": "JAK1 JH1 catalytic (human) (UniProt P23458)", "sequence (P23458 whole entry, looked up)": "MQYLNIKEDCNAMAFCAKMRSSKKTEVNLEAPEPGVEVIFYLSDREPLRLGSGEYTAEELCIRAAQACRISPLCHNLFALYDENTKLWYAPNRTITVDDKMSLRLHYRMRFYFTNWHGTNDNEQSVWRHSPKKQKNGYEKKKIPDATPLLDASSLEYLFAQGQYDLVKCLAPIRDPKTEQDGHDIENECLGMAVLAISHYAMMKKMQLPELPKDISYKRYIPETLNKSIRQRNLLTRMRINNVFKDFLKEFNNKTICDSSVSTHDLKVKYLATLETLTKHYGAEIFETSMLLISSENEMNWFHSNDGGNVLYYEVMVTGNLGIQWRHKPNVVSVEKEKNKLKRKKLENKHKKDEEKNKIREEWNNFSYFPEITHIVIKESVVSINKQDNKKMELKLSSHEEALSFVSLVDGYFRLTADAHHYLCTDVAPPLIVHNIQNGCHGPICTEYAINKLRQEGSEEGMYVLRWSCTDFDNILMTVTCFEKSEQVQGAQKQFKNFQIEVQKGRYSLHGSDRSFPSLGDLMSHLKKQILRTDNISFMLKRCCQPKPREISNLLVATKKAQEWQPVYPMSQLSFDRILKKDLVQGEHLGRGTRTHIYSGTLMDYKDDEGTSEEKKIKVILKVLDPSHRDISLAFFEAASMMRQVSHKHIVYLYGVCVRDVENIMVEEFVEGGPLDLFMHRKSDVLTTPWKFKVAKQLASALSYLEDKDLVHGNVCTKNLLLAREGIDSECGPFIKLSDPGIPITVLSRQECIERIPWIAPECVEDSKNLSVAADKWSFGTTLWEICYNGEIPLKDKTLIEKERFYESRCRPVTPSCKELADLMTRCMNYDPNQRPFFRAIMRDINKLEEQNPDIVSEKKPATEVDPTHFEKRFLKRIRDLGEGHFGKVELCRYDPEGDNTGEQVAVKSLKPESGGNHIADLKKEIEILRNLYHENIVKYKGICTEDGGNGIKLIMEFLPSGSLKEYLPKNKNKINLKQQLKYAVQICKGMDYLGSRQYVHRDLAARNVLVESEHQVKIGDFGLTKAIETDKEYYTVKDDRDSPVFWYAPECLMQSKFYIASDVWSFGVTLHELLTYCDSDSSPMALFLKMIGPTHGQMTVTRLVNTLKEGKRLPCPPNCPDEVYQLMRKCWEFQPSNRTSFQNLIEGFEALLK"}, "[3]": {"biological_target": "NEK4 (human) (UniProt P51957)", "sequence (P51957 whole entry, looked up)": "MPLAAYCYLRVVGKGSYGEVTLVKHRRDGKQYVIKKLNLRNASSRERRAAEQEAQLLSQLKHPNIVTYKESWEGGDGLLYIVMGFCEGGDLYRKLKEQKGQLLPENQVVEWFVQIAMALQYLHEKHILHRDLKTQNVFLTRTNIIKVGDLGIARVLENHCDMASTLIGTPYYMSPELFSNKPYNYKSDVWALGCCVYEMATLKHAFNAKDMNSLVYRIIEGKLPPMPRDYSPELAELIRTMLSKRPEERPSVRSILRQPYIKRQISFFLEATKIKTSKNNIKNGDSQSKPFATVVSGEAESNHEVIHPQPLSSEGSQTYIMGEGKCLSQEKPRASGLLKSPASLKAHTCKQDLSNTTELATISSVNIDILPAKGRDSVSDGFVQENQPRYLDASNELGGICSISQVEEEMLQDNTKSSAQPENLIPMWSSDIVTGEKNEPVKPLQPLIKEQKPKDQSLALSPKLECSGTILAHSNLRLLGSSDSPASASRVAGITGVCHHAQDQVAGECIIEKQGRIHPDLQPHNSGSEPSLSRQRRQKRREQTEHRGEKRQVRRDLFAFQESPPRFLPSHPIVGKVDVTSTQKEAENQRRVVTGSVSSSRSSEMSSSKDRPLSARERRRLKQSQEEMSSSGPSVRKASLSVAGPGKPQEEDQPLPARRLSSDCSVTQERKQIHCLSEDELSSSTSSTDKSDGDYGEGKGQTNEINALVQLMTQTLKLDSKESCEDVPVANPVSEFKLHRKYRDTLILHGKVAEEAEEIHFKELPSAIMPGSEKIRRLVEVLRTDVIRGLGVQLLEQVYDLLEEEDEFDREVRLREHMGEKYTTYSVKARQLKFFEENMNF"}, "[4]": {"biological_target": "STK4 (human) (UniProt Q13043)", "sequence (Q13043 whole entry, looked up)": "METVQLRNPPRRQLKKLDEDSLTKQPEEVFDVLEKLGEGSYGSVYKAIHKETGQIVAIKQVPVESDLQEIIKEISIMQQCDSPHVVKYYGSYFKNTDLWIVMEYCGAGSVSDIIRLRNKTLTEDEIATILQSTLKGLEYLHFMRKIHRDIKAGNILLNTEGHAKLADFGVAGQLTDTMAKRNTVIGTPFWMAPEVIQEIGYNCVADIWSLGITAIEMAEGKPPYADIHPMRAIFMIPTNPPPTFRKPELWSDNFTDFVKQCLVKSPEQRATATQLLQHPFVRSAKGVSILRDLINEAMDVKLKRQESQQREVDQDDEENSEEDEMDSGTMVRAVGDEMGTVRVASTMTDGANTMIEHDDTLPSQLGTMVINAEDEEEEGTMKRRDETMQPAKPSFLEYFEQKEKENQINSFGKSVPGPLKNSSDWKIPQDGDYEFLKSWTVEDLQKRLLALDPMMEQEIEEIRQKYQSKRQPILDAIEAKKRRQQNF"}, "[5]": {"biological_target": "LTK (human) (UniProt P29376)"}, "[6]": {"biological_target": "TBK1 (human) (UniProt Q9UHD2)"}, "[7]": {"biological_target": "CAMK2B (human) (UniProt Q13554)", "sequence (Q13554 whole entry, looked up)": "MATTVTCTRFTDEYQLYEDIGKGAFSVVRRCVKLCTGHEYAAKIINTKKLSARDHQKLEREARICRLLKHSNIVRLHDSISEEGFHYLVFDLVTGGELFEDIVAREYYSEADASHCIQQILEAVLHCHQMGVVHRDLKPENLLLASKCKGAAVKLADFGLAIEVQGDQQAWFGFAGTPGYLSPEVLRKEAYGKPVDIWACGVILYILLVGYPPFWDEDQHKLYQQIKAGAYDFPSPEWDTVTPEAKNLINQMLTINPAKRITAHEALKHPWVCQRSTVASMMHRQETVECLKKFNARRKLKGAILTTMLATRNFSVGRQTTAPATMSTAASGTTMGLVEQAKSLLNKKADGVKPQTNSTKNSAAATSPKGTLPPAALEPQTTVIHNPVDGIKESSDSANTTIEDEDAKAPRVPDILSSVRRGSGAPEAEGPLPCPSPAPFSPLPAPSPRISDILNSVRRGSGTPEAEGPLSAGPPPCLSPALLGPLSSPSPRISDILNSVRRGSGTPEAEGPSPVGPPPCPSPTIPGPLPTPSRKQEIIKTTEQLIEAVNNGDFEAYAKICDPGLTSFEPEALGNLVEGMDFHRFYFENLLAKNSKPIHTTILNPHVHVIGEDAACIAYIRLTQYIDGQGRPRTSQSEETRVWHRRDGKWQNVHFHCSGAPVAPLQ"}, "[8]": {"biological_target": "PIM1 (human) (UniProt P11309)"}, "[9]": {"biological_target": "BRSK2 (human) (UniProt Q8IWQ3)"}, "[10]": {"biological_target": "CDK5 CDK5R1 p25 (human) (UniProt Q00535+Q15078)", "sequence (Q00535 whole entry, looked up)": "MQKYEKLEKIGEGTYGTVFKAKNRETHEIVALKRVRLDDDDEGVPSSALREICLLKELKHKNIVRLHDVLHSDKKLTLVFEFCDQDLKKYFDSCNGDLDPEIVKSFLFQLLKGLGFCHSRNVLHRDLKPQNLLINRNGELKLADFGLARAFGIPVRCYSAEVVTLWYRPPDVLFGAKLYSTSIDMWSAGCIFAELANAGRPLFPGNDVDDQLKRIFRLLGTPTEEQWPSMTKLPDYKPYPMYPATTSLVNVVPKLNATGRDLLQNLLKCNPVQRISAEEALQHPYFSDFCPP", "sequence (Q15078 whole entry, looked up)": "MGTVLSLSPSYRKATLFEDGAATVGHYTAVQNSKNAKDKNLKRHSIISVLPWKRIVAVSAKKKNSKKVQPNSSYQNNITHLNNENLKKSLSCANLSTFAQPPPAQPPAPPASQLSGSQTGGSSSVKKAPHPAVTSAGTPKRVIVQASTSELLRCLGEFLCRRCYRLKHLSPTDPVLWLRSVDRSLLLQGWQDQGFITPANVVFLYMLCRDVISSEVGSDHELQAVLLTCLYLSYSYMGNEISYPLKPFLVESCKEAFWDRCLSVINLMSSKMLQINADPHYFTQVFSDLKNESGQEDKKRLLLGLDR"}, "[11]": {"biological_target": "HCK (human) (UniProt P08631)", "sequence (P08631 whole entry, looked up)": "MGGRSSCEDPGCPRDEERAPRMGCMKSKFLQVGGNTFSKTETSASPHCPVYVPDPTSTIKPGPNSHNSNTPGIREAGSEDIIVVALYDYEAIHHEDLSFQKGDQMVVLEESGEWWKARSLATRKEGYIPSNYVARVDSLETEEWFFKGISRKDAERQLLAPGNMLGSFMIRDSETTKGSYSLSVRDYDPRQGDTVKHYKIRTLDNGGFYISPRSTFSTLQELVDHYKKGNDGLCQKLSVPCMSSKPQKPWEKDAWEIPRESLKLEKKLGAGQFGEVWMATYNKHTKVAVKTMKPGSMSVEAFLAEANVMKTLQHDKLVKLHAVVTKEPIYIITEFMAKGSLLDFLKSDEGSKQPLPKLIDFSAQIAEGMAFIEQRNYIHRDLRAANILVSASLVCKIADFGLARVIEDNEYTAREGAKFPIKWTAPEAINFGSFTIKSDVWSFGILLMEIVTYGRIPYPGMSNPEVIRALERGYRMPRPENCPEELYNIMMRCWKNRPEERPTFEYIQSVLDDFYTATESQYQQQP"}, "[12]": {"biological_target": "CAMK2D (human) (UniProt Q13557)", "sequence (Q13557 whole entry, looked up)": "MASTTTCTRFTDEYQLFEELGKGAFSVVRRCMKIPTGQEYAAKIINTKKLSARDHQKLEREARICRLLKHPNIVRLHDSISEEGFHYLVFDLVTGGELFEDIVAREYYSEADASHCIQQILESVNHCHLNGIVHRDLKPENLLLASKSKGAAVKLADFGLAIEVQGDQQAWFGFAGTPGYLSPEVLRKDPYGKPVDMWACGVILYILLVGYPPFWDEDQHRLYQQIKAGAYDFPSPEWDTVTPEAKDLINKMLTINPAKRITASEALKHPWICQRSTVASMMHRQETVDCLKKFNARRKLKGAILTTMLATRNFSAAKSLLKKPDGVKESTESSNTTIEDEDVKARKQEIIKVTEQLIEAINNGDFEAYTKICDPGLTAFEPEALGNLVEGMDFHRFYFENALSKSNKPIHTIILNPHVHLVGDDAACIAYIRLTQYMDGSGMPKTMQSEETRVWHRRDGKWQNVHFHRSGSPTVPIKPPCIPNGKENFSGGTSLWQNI"}}}
{"smiles": "CN[C@@H]1C[C@H]2O[C@@](C)([C@@H]1OC)n1c3ccccc3c3c4c(c5c6ccccc6n2c5c31)C(=O)NC4", "values": [{"measurement": "residual activity", "setting": "[1]", "value": 8.24, "unit": "%"}, {"measurement": "residual activity", "setting": "[2]", "value": 2.07, "unit": "%"}, {"measurement": "residual activity", "setting": "[3]", "value": 46.8, "unit": "%"}, {"measurement": "residual activity", "setting": "[4]", "value": -0.197, "unit": "%"}, {"measurement": "residual activity", "setting": "[5]", "value": 0.543, "unit": "%"}, {"measurement": "residual activity", "setting": "[6]", "value": -0.455, "unit": "%"}, {"measurement": "residual activity", "setting": "[7]", "value": 1.64, "unit": "%"}, {"measurement": "residual activity", "setting": "[8]", "value": 1.47, "unit": "%"}, {"measurement": "residual activity", "setting": "[9]", "value": 3.53, "unit": "%"}, {"measurement": "residual activity", "setting": "[10]", "value": 2.78, "unit": "%"}, {"measurement": "residual activity", "setting": "[11]", "value": 3.26, "unit": "%"}, {"measurement": "residual activity", "setting": "[12]", "value": 3.05, "unit": "%"}]}
